Results from patent US11865100B2, “Method for treatment of rosacea in patients aged 65 years and older” (Sol-Gel Technologies Ltd., priority 2019, dated 2024).

How the values were obtained:
[1] = tested on: papulopustular rosacea in patients aged 65 years and older; test: Randomized, double-blind, vehicle-controlled 12-week study of E-BPO cream: Investigator Global Assessment (IGA) success rate; type: in vivo, human; details: Week 8
Protocol: Description: A randomized, double-blind, multi-center, parallel group, active- and vehicle-controlled study of encapsulated 5% benzoyl peroxide cream (E-BPO) and vehicle cream was performed to assess the efficacy and safety of E-BPO compared to vehicle. Study duration was 12 weeks and included approximately 350 male and female patients afflicted with papulopustular rosacea. 71 patients (about 20%) were at least 65 years of age.
Patients were admitted into the study after meeting all inclusion/exclusion criteria, including a clinical diagnosis of rosacea. Subjects with moderate to severe rosacea who were appropriate for systemic treatment were counseled regarding their treatment options by the Principal Investigator. At each visit, a 5-point IGA scale of rosacea and inflammatory lesion counts were performed and recorded.
Dosing: Patients were randomly organized in a 2:1 ratio to the study product or vehicle treatment group, respectively. Patients applied the study product once daily for 12 weeks on the face in a thin layer to provide even distribution.
Clinical and Safety Evaluations were performed at Baseline and Weeks 2, 4, 8 and 12.
The success rate of the treatment of rosacea (defined as a 2-grade improvement in the IGA relative to Baseline at Weeks 2, 4, […] and 12, with an IGA of Clear or Almost Clear) in patients aged 65 years and older are shown in Table 1 and FIG. 1. […]

rosacea = details: Gul 2008; BPO as sole active agent; cited from earlier work

## O=C(OOC(=O)c1ccccc1)c1ccccc1 [BPO, Benzoyl peroxide]
[1]
  Success rate greater than the success rate achieved with vehicle alone (difference drug - vehicle): 25%
rosacea
  Response of rosacea lesions: unresponsive
